In assay [1] the target is T1, Estrogen receptor (Homo sapiens) (UniProt P03372).
T1 sequence (whole entry): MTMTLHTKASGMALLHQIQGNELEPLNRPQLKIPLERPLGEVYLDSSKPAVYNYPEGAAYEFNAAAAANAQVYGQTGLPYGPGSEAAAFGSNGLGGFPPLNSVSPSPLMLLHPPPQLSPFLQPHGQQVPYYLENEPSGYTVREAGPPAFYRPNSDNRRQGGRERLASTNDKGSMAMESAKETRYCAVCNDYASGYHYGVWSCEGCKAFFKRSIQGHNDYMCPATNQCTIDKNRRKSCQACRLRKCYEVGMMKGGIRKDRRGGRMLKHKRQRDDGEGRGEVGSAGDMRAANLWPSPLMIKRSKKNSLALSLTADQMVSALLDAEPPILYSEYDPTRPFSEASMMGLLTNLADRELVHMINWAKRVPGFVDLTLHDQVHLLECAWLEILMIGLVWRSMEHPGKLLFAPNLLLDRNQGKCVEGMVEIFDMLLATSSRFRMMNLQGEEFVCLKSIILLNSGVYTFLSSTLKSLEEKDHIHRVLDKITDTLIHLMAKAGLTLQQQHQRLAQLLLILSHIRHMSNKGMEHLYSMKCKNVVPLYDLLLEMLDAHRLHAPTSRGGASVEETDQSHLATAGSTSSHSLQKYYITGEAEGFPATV
As to the kind of experiment: Agonist activity at ERalpha (301 to 553 amino acid residues) (unknown origin) assessed as induction of interaction with SRC1 after 24 hrs by yeast two-hybrid assay relative to isopaucifloral F.

Assay [2] concerns the target T1, Estrogen receptor (Homo sapiens). As to the kind of experiment: Antagonist activity at ERalpha (301 to 553 amino acid residues) (unknown origin) assessed as inhibition of E2 induced interaction with SRC1 after 24 hrs by yeast-two-hybrid assay. The arrangement: concentration or dose not given beside the values; scale not given: the % may be the effect or the level left.

In assay [3] the target is Estrogen receptor beta (Homo sapiens, UniProt Q92731). Briefly: Agonist activity at ERbeta (248 to 510 amino acid residues) (unknown origin) assessed as induction of interaction with SRC1 after 24 hrs by yeast two-hybrid assay.
Assay [4] deals with Rattus norvegicus. Briefly: Antiosteoporotic activity in ovariectomized Sprague-Dawley rat assessed as bone volume /tissue volume at 1 ug/kg, po qd at 6th week by micro-CT analysis (reference value: 41.33 +/- 5.04%). The assay is classed as functional.
For assay [5], the system named is Rattus norvegicus. As to the kind of experiment: Antiosteoporotic activity in ovariectomized Sprague-Dawley rat assessed as bone volume /tissue volume at 1 ug/kg, po qd at 12th week by micro-CT analysis (reference value: 31.61 +/- 2.39%). The assay is classed as functional.
Assay [6] deals with Rattus norvegicus. Briefly: Antiosteoporotic activity in ovariectomized Sprague-Dawley rat assessed as bone volume /tissue volume at 1 ug/kg, po qd at 18th week by micro-CT analysis (reference value: 27.36 +/- 1.99%). It counts as functional.
Assay [7] has as its system Rattus norvegicus. As to the kind of experiment: Antiosteoporotic activity in ovariectomized Sprague-Dawley rat assessed as trabecular thickness at 1 ug/kg, po qd at 6th week by micro-CT analysis (reference value: 0.086 +/- 0.0069 millimeter). The assay is classed as functional, Trabecula.
Assay [8] deals with Rattus norvegicus. As to the kind of experiment: Antiosteoporotic activity in ovariectomized Sprague-Dawley rat assessed as trabecular thickness at 1 ug/kg, po qd at 12th week by micro-CT analysis (reference value: 0.070 +/- 0.0063 millimeter). The assay is classed as functional, Trabecula.
Assay [9] deals with Rattus norvegicus. Briefly: Antiosteoporotic activity in ovariectomized Sprague-Dawley rat assessed as trabecular thickness at 1 ug/kg, po qd at 18th week by micro-CT analysis (reference value: 0.103 +/- 0.0044 millimeter). The assay is classed as functional, Trabecula.
In assay [10] the test system is Rattus norvegicus. As to the kind of experiment: Antiosteoporotic activity in ovariectomized Sprague-Dawley rat assessed as trabecular separation at 1 ug/kg, po qd at 6th week by micro-CT analysis (reference value: 0.116 +/- 0.010 millimeter). The assay is classed as functional, Trabecula.
Assay [11] deals with Rattus norvegicus. Briefly: Antiosteoporotic activity in ovariectomized Sprague-Dawley rat assessed as trabecular separation at 1 ug/kg, po qd at 12th week by micro-CT analysis (reference value: 0.146 +/- 0.010 millimeter). It counts as functional, Trabecula.
Assay [12] has as its system Rattus norvegicus. As to the kind of experiment: Antiosteoporotic activity in ovariectomized Sprague-Dawley rat assessed as trabecular separation at 1 ug/kg, po qd at 18th week by micro-CT analysis (reference value: 0.234 +/- 0.021 millimeter). The assay is classed as functional, Trabecula.
Assay [13] concerns Rattus norvegicus. As to the kind of experiment: Antiosteoporotic activity in ovariectomized Sprague-Dawley rat assessed as serum osteocalcin level at 1 ug/kg, po qd at 12th week by enzyme immunoassay (reference value: 1055.8 +/- 14 ng/ml). It counts as functional.
For assay [14], the system named is Rattus norvegicus. Briefly: Antiosteoporotic activity in ovariectomized Sprague-Dawley rat assessed as serum osteocalcin level at 1 ug/kg, po qd at 18th week by enzyme immunoassay (reference value: 1118.9 +/- 37.77 ng/ml). The assay is classed as functional.

Estrogen receptor beta, sequence (Q92731 whole entry, the tested form may be a part): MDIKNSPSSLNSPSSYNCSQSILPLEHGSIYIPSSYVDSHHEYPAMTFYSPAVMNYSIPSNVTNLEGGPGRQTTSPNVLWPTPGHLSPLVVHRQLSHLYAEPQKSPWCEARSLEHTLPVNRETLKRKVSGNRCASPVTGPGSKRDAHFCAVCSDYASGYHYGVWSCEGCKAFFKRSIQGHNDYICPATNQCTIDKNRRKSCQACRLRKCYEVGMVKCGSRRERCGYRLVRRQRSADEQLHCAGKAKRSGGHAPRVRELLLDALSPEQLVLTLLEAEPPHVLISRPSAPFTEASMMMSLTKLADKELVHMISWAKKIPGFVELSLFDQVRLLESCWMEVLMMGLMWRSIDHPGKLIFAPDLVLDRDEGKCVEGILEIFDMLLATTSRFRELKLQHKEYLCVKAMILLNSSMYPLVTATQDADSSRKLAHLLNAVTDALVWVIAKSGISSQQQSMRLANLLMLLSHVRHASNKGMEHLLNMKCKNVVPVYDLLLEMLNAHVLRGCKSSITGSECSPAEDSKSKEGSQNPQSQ

A word on the EC50: it is the concentration giving half of the maximal effect. As to `Oc1ccc(C2C(c3cc(O)cc(O)c3)=C(Cc3ccc(Cl)cc3)c3cc(O)cc(O)c32)cc1` (stereo not given), the fold change (FC) in assay [1] was determined as 0.88. In [2], the Activity was 15.2%. The EC50 in [3] is 45.8 µM.
Consider `Cc1ccc([C@@H]2c3c(O)cc(O)cc3[C@H]3[C@H](c4ccc(O)cc4)c4c(O)cc(O)cc4[C@@H]23)cc1`, for which the fold change (FC) in assay [1] was determined as 0.99. Further, the Activity in assay [2] stood at 0%. In assay [3], the EC50 was 5.65 µM.
`Oc1cc(O)c2c(c1)[C@H]1[C@H](c3ccccc3)c3c(O)cc(O)cc3[C@H]1[C@@H]2c1ccccc1`: the fold change (FC) in assay [1] was determined as 0.86. In [2], the Activity was found to be 0%.
As for `Oc1cc(O)cc(C2=C(Cc3ccccc3)c3cc(O)cc(O)c3C2c2ccccc2)c1` (stereo not given), the fold change (FC) in assay [1] was 0.88. Moreover, the Activity in [2] worked out at 0%.
For `Oc1ccc(/C=C/c2cc(O)cc(O)c2)cc1`, in that order: 0.1 and 0%.
Turning to `Oc1ccc(/C=C2/c3cc(O)cc(O)c3[C@@H](c3ccc(O)cc3)[C@@H]2c2cc(O)cc(O)c2)cc1`, the fold change (FC) in [1] was found to be 0.92. For the same compound, in [2], the Activity is 20.9%.
For the compound `Oc1ccc(C2C(c3cc(O)cc(O)c3)=C(Cc3ccc(F)cc3)c3cc(O)cc(O)c32)cc1` (stereo not given), the fold change (FC) in assay [1] came out at 0.83. Also, the Activity in assay [2] was 1.59%.
On to `Oc1ccc(C2C(c3cc(O)cc(O)c3)=C(Cc3ccccc3)c3cc(O)cc(O)c32)cc1` (stereo not given), for which the fold change (FC) in assay [1] was found to be 0.98. Moreover, the Activity in assay [2] turned out to be 2%.
`Oc1ccc(CC2=C(c3cc(O)cc(O)c3)C(c3ccc(O)cc3)c3c(O)cc(O)cc32)cc1` (stereo not given): in assay [1], the fold change (FC) worked out at 0.94. Further, the Activity in assay [2] worked out at 5.84%.
In the same order, the values of `Oc1ccc(CC2=C(c3cc(O)cc(O)c3)C(c3ccccc3)c3c(O)cc(O)cc32)cc1` (stereo not given) are 0.86 and 8.48%.
For `Oc1ccc([C@@H]2c3c(O)cc(O)cc3[C@H]3[C@H](c4ccc(F)cc4)c4c(O)cc(O)cc4[C@@H]23)cc1`, in that order: 0.95 and 0%.
Turning to `Oc1ccc([C@@H]2c3c(O)cc(O)cc3[C@H]3[C@H](c4ccc(O)cc4)c4c(O)cc(O)cc4[C@@H]23)cc1`, the fold change (FC) in assay [1] came to 1.01. Further, the Activity in [2] came out at 5.23%.
In the same order, the values of `Oc1ccc([C@@H]2c3c(O)cc(O)cc3[C@H]3[C@H](c4ccccc4)c4c(O)cc(O)cc4[C@@H]23)cc1` are 0.94 and 0.76%.
In the case of `O=C1c2cc(O)cc(O)c2[C@@H](c2ccc(F)cc2)[C@@H]1c1cc(O)cc(O)c1` (relative stereo), in assay [1], the fold change (FC) turned out to be 0.94. For the same compound, the Activity in assay [2] is 7.61%.
For `O=C1c2cc(O)cc(O)c2[C@@H](c2ccccc2)[C@@H]1c1cc(O)cc(O)c1` (relative stereo), in that order: 0.97 and 7.59%.
In the same order, the values of `Oc1ccc([C@@H]2c3c(O)cc(O)cc3C(O)[C@H]2c2cc(O)cc(O)c2)cc1` (relative stereo) are 1.04 and 24.5%.
On to `O=c1c(-c2ccc(O)cc2)coc2cc(O)cc(O)c12` [GENISTEIN], for which the Activity in assay [4] is 40.5%; in [5], 40.62%; in [6], 41.62%; in [7], 0.084 mm; in assay [8], 0.079 mm; in assay [9] it was 0.102 mm. Besides, the Activity worked out at 0.125 mm in [10]; 0.134 mm in [11]; 0.157 mm in assay [12]; 954.33 ng/mL in [13]; 882.76 ng/mL in [14].
